Data published in patent publication US8889874B2, “Imidazolone-chalcone derivatives as potential anticancer agent and process for the preparation thereof” (Council of Scientific and Industrial Research, priority 2010, dated 2014).
Like-named read-outs stand apart in the source and are kept apart here.

What was measured:
Assay type in all cases: cell-based, human
CAKI-1 (renal) = experiment: NCI anticancer screen, SRB assay, 48 h; settings: Homo sapiens
Summary of the method: (§1)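 Sulforhodamine B protein assay read cell growth after 48 h of continuous compound exposure. Dose-response curves per cell line used at least five 10-fold-diluted concentrations, within a panel of fifty-three human lines from nine tumour types.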

[1] = system: A549/ATCC (non-small cell lung); experiment: NCI anticancer screen, SRB assay, 48 h; settings: Homo sapiens
Summary of the method: as §1

SK-MEL-2 (melanoma) = experiment: NCI anticancer screen, SRB assay, 48 h; settings: Homo sapiens
Summary of the method: as §1

[2] = system: NCI-H522 (non-small cell lung); experiment: NCI anticancer screen, SRB assay, 48 h; settings: Homo sapiens
Summary of the method: as §1

SN12C (renal) = experiment: NCI anticancer screen, SRB assay, 48 h; settings: Homo sapiens, SN12C
Summary of the method: as §1

HCT-15 (colon) = experiment: NCI anticancer screen, SRB assay, 48 h; settings: Homo sapiens
Summary of the method: as §1

COLO 205 (colon) = experiment: NCI anticancer screen, SRB assay, 48 h; settings: Homo sapiens, COLO 205
Summary of the method: as §1

OVCAR-3 (ovarian) = experiment: NCI anticancer screen, SRB assay, 48 h; settings: Homo sapiens
Summary of the method: as §1

KM12 (colon) = experiment: NCI anticancer screen, SRB assay, 48 h; settings: Homo sapiens
Summary of the method: as §1

SF-539 (CNS) = experiment: NCI anticancer screen, SRB assay, 48 h; settings: Homo sapiens
Summary of the method: as §1

UO-31 (renal) = experiment: NCI anticancer screen, SRB assay, 48 h; settings: Homo sapiens
Summary of the method: as §1

MDA-MB-435 (melanoma) = experiment: NCI anticancer screen, SRB assay, 48 h; settings: Homo sapiens
Summary of the method: as §1

[3] = system: NCI-H23 (non-small cell lung); experiment: NCI anticancer screen, SRB assay, 48 h; settings: Homo sapiens
Summary of the method: as §1

A498 (renal) = experiment: NCI anticancer screen, SRB assay, 48 h; settings: Homo sapiens
Summary of the method: as §1

[4] = system: EKVX (non-small cell lung); experiment: NCI anticancer screen, SRB assay, 48 h; settings: Homo sapiens
Summary of the method: as §1

[5] = system: HOP-92 (non-small cell lung); experiment: NCI anticancer screen, SRB assay, 48 h; settings: Homo sapiens
Summary of the method: as §1

PC-3 (prostate) = experiment: NCI anticancer screen, SRB assay, 48 h; settings: Homo sapiens
Summary of the method: as §1

TD-47D (breast) = experiment: NCI anticancer screen, SRB assay, 48 h; settings: Homo sapiens
Summary of the method: as §1

BT-549 (breast) = experiment: NCI anticancer screen, SRB assay, 48 h; settings: Homo sapiens
Summary of the method: as §1

HCC-2998 (colon) = experiment: NCI anticancer screen, SRB assay, 48 h; settings: Homo sapiens
Summary of the method: as §1

OVCAR-5 (ovarian) = experiment: NCI anticancer screen, SRB assay, 48 h; settings: Homo sapiens
Summary of the method: as §1

SK-MEL-5 (melanoma) = experiment: NCI anticancer screen, SRB assay, 48 h; settings: Homo sapiens
Summary of the method: as §1

TK-10 (renal) = experiment: NCI anticancer screen, SRB assay, 48 h; settings: Homo sapiens
Summary of the method: as §1

[6] = system: NCI-H322M (non-small cell lung); experiment: NCI anticancer screen, SRB assay, 48 h; settings: Homo sapiens
Summary of the method: as §1

[7] = system: Leukemia cancer cell lines; experiment: NCI anticancer screen, SRB assay, panel summary; settings: Homo sapiens
Summary of the method: as §1

Renal cancer cell lines = experiment: NCI anticancer screen, SRB assay, panel summary; settings: Homo sapiens
Summary of the method: as §1

Breast cancer cell lines = experiment: NCI anticancer screen, SRB assay, panel summary; settings: Homo sapiens
Summary of the method: as §1

[8] = system: Ovarian cancer cell lines; experiment: NCI anticancer screen, SRB assay, panel summary; settings: Homo sapiens
Summary of the method: as §1

[9] = system: Melanoma cancer cell lines; experiment: NCI anticancer screen, SRB assay, panel summary; settings: for GI50: Homo sapiens
Summary of the method: as §1

[10] = system: Non-small cell lung cancer cell lines; experiment: NCI anticancer screen, SRB assay, panel summary; settings: Homo sapiens
Summary of the method: as §1

[11] = system: Prostate cancer cell lines; experiment: NCI anticancer screen, SRB assay, panel summary
Summary of the method: as §1

Colon cancer cell lines = experiment: NCI anticancer screen, SRB assay, panel summary; settings: for GI50: Homo sapiens
Summary of the method: as §1

CNS cancer cell lines = experiment: NCI anticancer screen, SRB assay, panel summary; settings: for GI50: Homo sapiens
Summary of the method: as §1

[12] = 48 h exposure, SRB, read-out: GI50
[13] = read-out: pGI50 (-log of molar concentration causing 50% inhibition of net cell growth) (converted)

COc1ccc(-c2cn(-c3cccc(C(=O)/C=C/c4ccc(O)c(OC)c4)c3)c(=O)[nH]2)cc1 [3b, 1-3-[(E)-3-(4-hydroxy-3-methoxyphenyl)-2-propenoyl]phenyl-4-(4-methoxyphenyl)-2,3-dihydro-1H-2-imidazolone]
GI50 (CAKI-1 (renal); [12]): 4.99 µM | GI50 (CAKI-1 (renal); [13]): 5.01 µM | GI50 [1, 12]: 4.14 µM | GI50 [1, 13]: 4.17 µM | GI50 (SK-MEL-2 (melanoma); [12]): 5.54 µM | GI50 (SK-MEL-2 (melanoma); [13]): 5.5 µM | GI50 [2, 12]: 3.48 µM | GI50 [2, 13]: 3.47 µM | GI50 (SN12C (renal); SN 12C, read-out: pGI50 (-log of molar concentration causing 50% inhibition of net cell growth) (converted)): 4.07 µM | GI50 (SN12C (renal); [12]): 4.11 µM | GI50 (HCT-15 (colon); [12]): 3.15 µM | GI50 (HCT-15 (colon); [13]): 3.16 µM | GI50 (COLO 205 (colon); COLO205, read-out: pGI50 (-log of molar concentration causing 50% inhibition of net cell growth) (converted)): 6.61 µM | GI50 (COLO 205 (colon); [12]): 6.61 µM | GI50 (OVCAR-3 (ovarian); [12]): 2700 nM | GI50 (OVCAR-3 (ovarian); [13]): 2690 nM | GI50 (KM12 (colon); [12]): 1770 nM | GI50 (KM12 (colon); [13]): 1780 nM | GI50 (SF-539 (CNS); [12]): 2250 nM | GI50 (SF-539 (CNS); [13]): 2240 nM | GI50 (UO-31 (renal); [12]): 5.19 µM | GI50 (UO-31 (renal); [13]): 5.25 µM | GI50 (MDA-MB-435 (melanoma); [12]): 3.35 µM | GI50 (MDA-MB-435 (melanoma); [13]): 3.39 µM | GI50 [3, 12]: 2850 nM | GI50 [3, 13]: 2820 nM | GI50 (A498 (renal); [12]): 3.72 µM | GI50 (A498 (renal); [13]): 3.72 µM | GI50 [4, 12]: 13.4 µM | GI50 [4, 13]: 13.5 µM | GI50 [5, 12]: 2960 nM | GI50 [5, 13]: 2950 nM | GI50 (PC-3 (prostate); PC-3, read-out: pGI50 (-log of molar concentration causing 50% inhibition of net cell growth) (converted)): 3.02 µM | GI50 (PC-3 (prostate); one prostate cancer cell line (PC-3), exposure at least 48 hrs, read-out: GI50): 3.05 µM | GI50 (TD-47D (breast); [12]): 3.6 µM | GI50 (TD-47D (breast); [13]): 3.63 µM | GI50 (BT-549 (breast); [12]): 4.57 µM | GI50 (BT-549 (breast); [13]): 4.57 µM | GI50 (HCC-2998 (colon); [12]): 2320 nM | GI50 (HCC-2998 (colon); [13]): 2340 nM | GI50 (OVCAR-5 (ovarian); [12]): 3.38 µM | GI50 (OVCAR-5 (ovarian); [13]): 3.39 µM | GI50 (SK-MEL-5 (melanoma); [12]): 2630 nM | GI50 (SK-MEL-5 (melanoma); [13]): 2630 nM | GI50 (TK-10 (renal); [12]): 6.08 µM | GI50 (TK-10 (renal); [13]): 6.03 µM | GI50 [6, 12]: 8.2 µM | GI50 [6, 13]: 8.13 µM | GI50 ([7]; Leukemia panel, log of concentration in mol/L causing 50% inhibition of net cell growth, read-out: mean graph midpoint (MG_MID) of Log10 GI50 (converted)): 1780 nM | LC50 ([7]; Leukemia panel, log of concentration leading to 50% net cell death, read-out: mean graph midpoint (MG_MID) of Log10 LC50 (converted)): 38 µM | GI50 ([7]; two leukemia cancer cell lines (RPMI-8226 and K-562), exposure at least 48 hrs, read-out: GI50, range over the panel): 1350 to 2350 nM | GI50 (Renal cancer cell lines; Renal panel, log of concentration in mol/L causing 50% inhibition of net cell growth, read-out: mean graph midpoint (MG_MID) of Log10 GI50 (converted)): 4.68 µM | LC50 (Renal cancer cell lines; Renal panel, log of concentration leading to 50% net cell death, read-out: mean graph midpoint (MG_MID) of Log10 LC50 (converted)): 95.5 µM | GI50 (Renal cancer cell lines; eight renal cancer cell lines, exposure at least 48 hrs, read-out: GI50, range over the panel): 3.4 to 6.08 µM | GI50 (Breast cancer cell lines; Breast panel, log of concentration in mol/L causing 50% inhibition of net cell growth, read-out: mean graph midpoint (MG_MID) of Log10 GI50 (converted)): 4.17 µM | LC50 (Breast cancer cell lines; Breast panel, log of concentration leading to 50% net cell death, read-out: mean graph midpoint (MG_MID) of Log10 LC50 (converted)): 100 µM | GI50 (Breast cancer cell lines; five breast cancer cell lines, exposure at least 48 hrs, read-out: GI50, range over the panel): 3.18 to 5.25 µM | GI50 ([8]; Ovarian panel, log of concentration in mol/L causing 50% inhibition of net cell growth, read-out: mean graph midpoint (MG_MID) of Log10 GI50 (converted)): 3.89 µM | LC50 ([8]; Ovarian panel, log of concentration leading to 50% net cell death, read-out: mean graph midpoint (MG_MID) of Log10 LC50 (converted)): 100 µM | GI50 ([8]; six ovarian cancer cell lines, exposure at least 48 hrs, read-out: GI50, range over the panel): 2.56 to 6.08 µM | GI50 ([9]; Melanoma panel, log of concentration in mol/L causing 50% inhibition of net cell growth, read-out: mean graph midpoint (MG_MID) of Log10 GI50 (converted)): 4.07 µM | GI50 ([9]; nine melanoma cancer cell lines, exposure at least 48 hrs, read-out: GI50, range over the panel): 2.03 to 13.3 µM | mean graph midpoint (MG_MID) of Log10 LC50 ([9]; Melanoma panel, log of concentration leading to 50% net cell death): 4.13 | GI50 ([10]; Non-small cell lung panel, log of concentration in mol/L causing 50% inhibition of net cell growth, read-out: mean graph midpoint (MG_MID) of Log10 GI50 (converted)): 4.68 µM | LC50 ([10]; Non-small cell lung panel, log of concentration leading to 50% net cell death, read-out: mean graph midpoint (MG_MID) of Log10 LC50 (converted)): ≥ 100 µM | GI50 ([10]; nine non-small cell lung cancer cell lines, exposure at least 48 hrs, read-out: GI50, range over the panel): 2.85 to 13.4 µM | GI50 ([11]; Homo sapiens, log of concentration in mol/L causing 50% inhibition of net cell growth, read-out: mean graph midpoint (MG_MID) of Log10 GI50 (converted)): 3.02 µM | LC50 ([11]; Homo sapiens, log of concentration leading to 50% net cell death, read-out: mean graph midpoint (MG_MID) of Log10 LC50 (converted)): ≥ 100 µM | mean graph midpoint (MG_MID) of Log10 TGI ([11]; log of concentration resulting in total inhibition of net cell growth): 4.80 | mean graph midpoint (MG_MID) of Log10 LC50 (Colon cancer cell lines; Colon panel, log of concentration leading to 50% net cell death): 4.33 | GI50 (Colon cancer cell lines; Colon panel, log of concentration in mol/L causing 50% inhibition of net cell growth, read-out: mean graph midpoint (MG_MID) of Log10 GI50 (converted)): 2880 nM | GI50 (Colon cancer cell lines; seven colon cancer cell lines, exposure at least 48 hrs, read-out: GI50, range over the panel): 1770 to 6610 nM | mean graph midpoint (MG_MID) of Log10 LC50 (CNS cancer cell lines; CNS panel, log of concentration leading to 50% net cell death): 4.06 | GI50 (CNS cancer cell lines; CNS panel, log of concentration in mol/L causing 50% inhibition of net cell growth, read-out: mean graph midpoint (MG_MID) of Log10 GI50 (converted)): 4.68 µM | GI50 (CNS cancer cell lines; six CNS cancer cell lines, exposure at least 48 hrs, read-out: GI50, range over the panel): 2.25 to 13.9 µM
